Results from patent publication US10966426B2, “Herbicidal compositions comprising phenylpyrimidines” (BASF SE, priority 2016, dated 2021).
Several values for one entry are separate records, joined by “and”; a condition that tells them apart may be missing. Equal values may be shown once.

Experiments:
Format in all cases: in vivo
Galium aparine = assay: greenhouse post-emergence treatment, GALAP
Outline: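 Each species was grown separately and treated once it reached 3 to 15 cm, using actives suspended or emulsified in water. Plants were kept at 10-25° C. or 20-35° C., depending on species. Damage is a 0–100 rating taken during 2 to 4 weeks.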

Digitaria sanguinalis = assay: greenhouse post-emergence treatment, DIGSA
Outline: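 Seeds sown per species in loamy sand substrate (about 3.0% humus); some raised separately and transplanted shortly before treatment. Treatments applied in water post-emergence, plants held at 10-25° C. or 20-35° C. by species, then scored after 2 to 4 weeks, where 100 means total kill and 0 no damage.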

Stellaria media [1] = assay: greenhouse pre-emergence treatment, STEME
Outline: (§1)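 Seeds were sown per species in pots of loamy sand with about 3.0% humus, sprayed with the aqueous spray liquor directly after sowing, watered and hooded until rooted, then kept at 10-25° C. or 20-35° C. for 2 to 4 weeks. Damage was scored 0 (none) to 100 (no emergence/complete destruction).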

Stellaria media [2] = assay: greenhouse post-emergence treatment, STEME
Outline: (§2)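 Plants were grown in loamy sand with about 3.0% humus to 3–15 cm height, then sprayed with actives formulated as 10% by weight emulsion concentrates in water. Held at 10-25° C. or 20-35° C. by species for 2 to 4 weeks; damage scored 0 (none) to 100 (complete destruction).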

Helianthus annuus = assay: greenhouse post-emergence treatment, HELAN
Outline: as §2

Setaria viridis = assay: greenhouse pre-emergence treatment, SETVI
Outline: as §1

Brachiaria decumbens = assay: greenhouse pre-emergence treatment, BRADC
Outline: as §1

[3] = 20 DAT, Ex. 26 solo 62.5 gai/ha
[4] = 20 DAT, Ex. 26 solo 31.25 gai/ha

## COC(=O)c1nc(C2CC2)ncc1-c1ccc(F)cc1Cl [Ex. 26]
Galium aparine; 20 DAT, Ex. 26 solo 125 gai/ha
  % activity: 0%
Galium aparine; 20 DAT, GALAP, Ex. 26 solo 62.5 gai/ha
  % activity: 0%
Galium aparine; 20 DAT, GALAP, Ex. 26 solo 125 gai/ha
  % activity: 0%
Galium aparine; 20 DAT, GALAP, Ex. 26 solo 250 gai/ha
  % activity: 0%
Galium aparine; Ex. 26 solo 62.5 gai/ha, 20 DAT, GALAP (pyridate table)
  % activity: 0%
Galium aparine; Ex. 26 solo 62.5 gai/ha, 20 DAT, GALAP (pyroxsulam table)
  % activity: 0%
Galium aparine; Ex. 26 solo 125 gai/ha, 20 DAT, GALAP (pyridate table)
  % activity: 0%
Galium aparine; Ex. 26 solo 125 gai/ha, 20 DAT, GALAP (pyroxsulam table)
  % activity: 0%
Galium aparine; Ex. 26 solo 125 gai/ha, 21 DAT, GALAP
  % activity: 0%
Galium aparine; Ex. 26 solo 250 gai/ha, 20 DAT, GALAP (pyridate table)
  % activity: 0%
Galium aparine; Ex. 26 solo 250 gai/ha, 20 DAT, GALAP (pyroxsulam table)
  % activity: 30%
Galium aparine; Ex. 26 solo 250 gai/ha, 21 DAT, GALAP
  % activity: 0%
Galium aparine; GALAP, 21 DAT, solo Ex. 26 250 gai/ha
  % activity: 25%
Galium aparine; GALAP, Ex. 26 solo 125 gai/ha, 20 DAT
  % activity: 0%
Galium aparine; GALAP, Ex. 26 solo 250 gai/ha, 20 DAT
  % activity: 0%
Digitaria sanguinalis; 20 DAT, DIGSA, Ex. 26 solo 125 gai/ha
  % activity: 0%
Digitaria sanguinalis; [3]
  % activity: 0%
Digitaria sanguinalis; 20 DAT, Ex. 26 solo 250 gai/ha
  % activity: 20% and 30%
Digitaria sanguinalis; 21 DAT, Ex. 26 solo 125 gai/ha
  % activity: 0%
Digitaria sanguinalis; DIGSA, 21 DAT, solo Ex. 26 62.5 gai/ha
  % activity: 20%
Digitaria sanguinalis; DIGSA, 21 DAT, solo Ex. 26 125 gai/ha
  % activity: 20%
Digitaria sanguinalis; DIGSA, 21 DAT, solo Ex. 26 250 gai/ha
  % activity: 20%
Digitaria sanguinalis; DIGSA, Ex. 26 solo 125 gai/ha, 20 DAT
  % activity: 0%
Digitaria sanguinalis; Ex. 26 solo 62.5 gai/ha, 20 DAT, DIGSA
  % activity: 0%
Stellaria media [1]; 20 DAT, Ex. 26 solo 125 gai/ha
  % activity: 20%
Stellaria media [1]; 20 DAT, Ex. 26 solo 250 gai/ha
  % activity: 90%
Stellaria media [1]; 20 DAT, solo Ex. 26 15 gai/ha
  % activity: 40%
Stellaria media [1]; 20 DAT, solo Ex. 26 62.5 gai/ha
  % activity: 30%
Stellaria media [1]; 20 DAT, solo Ex. 26 125 gai/ha
  % activity: 0%
Stellaria media [1]; Ex. 26 solo 31.25 gai/ha, 20 DAT
  % activity: 0%
Stellaria media [1]; Ex. 26 solo 62.5 gai/ha, 20 DAT
  % activity: 0%
Stellaria media [1]; Ex. 26 solo 125 gai/ha, 21 DAT
  % activity: 30%
Stellaria media [1]; Ex. 26 solo 250 gai/ha, 21 DAT
  % activity: 80%
Stellaria media [1]; Ex. 26 solo, 62.5 gai/ha, 20 DAT
  % activity: 0%
Stellaria media [1]; Ex. 26 solo, 125 gai/ha, 20 DAT
  % activity: 0%
Stellaria media [2]; [3]
  % activity: 0%
Stellaria media [2]; 20 DAT, STEME, Ex. 26 solo 250 gai/ha
  % activity: 60%
Stellaria media [2]; Ex. 26 solo 62.5 gai/ha, 20 DAT, STEME
  % activity: 20%
Stellaria media [2]; Ex. 26 solo 125 gai/ha, 20 DAT, STEME
  % activity: 55%
Stellaria media [2]; Ex. 26 solo 125 gai/ha, 21 DAT, STEME
  % activity: 0%
Stellaria media [2]; Ex. 26 solo 250 gai/ha, 20 DAT, STEME
  % activity: 30%
Stellaria media [2]; Ex. 26 solo, 125 gai/ha, 21 DAT, STEME
  % activity: 0%
Stellaria media [2]; Ex. 26 solo, 250 gai/ha, 21 DAT, STEME
  % activity: 10%
Stellaria media [2]; STEME, 21 DAT, solo Ex. 26 62.5 gai/ha
  % activity: 0%
Stellaria media [2]; STEME, 21 DAT, solo Ex. 26 125 gai/ha
  % activity: 0%
Stellaria media [2]; STEME, 21 DAT, solo Ex. 26 250 gai/ha
  % activity: 10%
Stellaria media [2]; STEME, Ex. 26 solo 125 gai/ha, 20 DAT
  % activity: 40%
Stellaria media [2]; STEME, Ex. 26 solo 250 gai/ha, 20 DAT
  % activity: 40%
Helianthus annuus; 20 DAT, Ex. 26 solo 250 gai/ha
  % activity: 0%
Helianthus annuus; 20 DAT, HELAN, Ex. 26 solo 125 gai/ha
  % activity: 0% and 10%
Helianthus annuus; 20 DAT, HELAN, Ex. 26 solo 250 gai/ha
  % activity: 10%
Helianthus annuus; Ex. 26 solo 62.5 gai/ha, 20 DAT, HELAN
  % activity: 0%
Helianthus annuus; Ex. 26 solo 125 gai/ha, 20 DAT, HELAN
  % activity: 0%
Helianthus annuus; Ex. 26 solo 250 gai/ha, 20 DAT, HELAN
  % activity: 5%
Helianthus annuus; Ex. 26 solo, 125 gai/ha, 21 DAT, HELAN
  % activity: 10%
Helianthus annuus; Ex. 26 solo, 250 gai/ha, 21 DAT, HELAN
  % activity: 25%
Setaria viridis; [4]
  % activity: 0%
Setaria viridis; [3]
  % activity: 0%
Setaria viridis; 20 DAT, Ex. 26 solo 125 gai/ha
  % activity: 10%
Setaria viridis; Ex. 26 solo 62.5 gai/ha, 20 DAT, SETVI
  % activity: 0%
Setaria viridis; Ex. 26 solo 62.5 gai/ha, 21 DAT, SETVI
  % activity: 0%
Setaria viridis; Ex. 26 solo 125 gai/ha, 20 DAT, SETVI
  % activity: 0%
Setaria viridis; Ex. 26 solo 125 gai/ha, 21 DAT, SETVI
  % activity: 20%
Setaria viridis; Ex. 26 solo 250 gai/ha, 21 DAT, SETVI
  % activity: 25%
Setaria viridis; Ex. 26 solo, 31.25 gai/ha, 20 DAT, SETVI
  % activity: 0%
Setaria viridis; Ex. 26 solo, 62.5 gai/ha, 20 DAT, SETVI
  % activity: 0%
Setaria viridis; Ex. 26 solo, 125 gai/ha, 20 DAT, SETVI
  % activity: 0%
Setaria viridis; SETVI, 20 DAT, solo Ex. 26 125 gai/ha
  % activity: 0%
Setaria viridis; SETVI, Ex. 26 solo 125 gai/ha, 20 DAT
  % activity: 10%
Setaria viridis; SETVI, Ex. 26 solo 250 gai/ha, 20 DAT
  % activity: 35%
Brachiaria decumbens; 20 DAT, BRADC, Ex. 26 solo 125 gai/ha
  % activity: 50%
Brachiaria decumbens; [4]
  % activity: 0%
Brachiaria decumbens; [3]
  % activity: 0%
Brachiaria decumbens; 20 DAT, Ex. 26 solo 125 gai/ha
  % activity: 20%
Brachiaria decumbens; 21 DAT, BRADC, Ex. 26 solo 125 gai/ha
  % activity: 10%
Brachiaria decumbens; 21 DAT, BRADC, Ex. 26 solo 250 gai/ha
  % activity: 30%
Brachiaria decumbens; BRADC, Ex. 26 solo 31.25 gai/ha, 20 DAT
  % activity: 0%
